Measured values reported in US12383608B2, “WT1 helper peptides and combinations of WT1 helper peptide and conjugate of cancer antigen peptides” (Sumitomo Pharma Co., Ltd., priority 2016, dated 2025).

Test system: HLA-A*02:01 transgenic mouse (C57BL/6CrHLA-A2.1DR1)
Assay: In vivo CTL induction in HLA-A*02:01 transgenic mouse (IFNγ ELISPOT assay on splenocytes)
Details: Montanide ISA 51 VG, intradermal; for Effect of the cocktail vaccine comprising the peptide on the CTL induction by the compound of formula (4): cocktail vaccine: helper peptide (170-315 μg per site) + compound of formula (4) (250 μg per site), molar ratio 1:1.13-1.15 or equimolar, compared with compound of formula (4) alone; for CTL induction by the cocktail vaccine comprising the peptide in addition to the compound of formula (4) (increase in number of CTLs): cocktail vaccine: helper peptide + compound of formula (4), compared with the vaccine comprising the compound of formula (4)
Protocol: The HLA-A*02:01 transgenic mouse (C57BL/6CrHLA-A2.1DR1) lacks mouse MHC, and instead expresses a chimeric IILA of a human MHC, HLA-A*02:01 with a mouse MHC, H-2Db, and HLA-DRB1*01:01.
The solution was diluted with water for injection to a concentration of 10 mg/ml, and then converted to an emulsion by addition of an equal volume of Montanide ISA 51 VG. […] One week after the administration, the mice were sacrificed with CO2 gas. Splenocytes were harvested from spleens removed from the mice. For detecting IFNγ-producing splenocytes, an IFNγ ELISPOT assay kit was used. In particular, an ELISPOT plate was treated with an anti-mouse-IFNγ antibody on the day before preparation of the splenocyte samples. On the next day, the plate was blocked by treatment with an RPMI 1640 medium with 10% FBS. To the blocked ELISPOT plate, the splenocyte samples from the HLA-A*02:01 transgenic mice were added at 1.25×10^5 cells/well. For in vitro stimulation of the cells, the peptide of SEQ ID NO: 15 was dissolved in DMSO at a concentration of 40 mg/ml, diluted with RPMI 1640 with 10% FBS to 40 μg/ml, and added to the splenocyte-containing wells at a final concentration of 10 μg/ml. The plate was incubated for 17 hours at 37° C. under an atmosphere of 5% CO2. Then, after removal of the culture medium from the wells, the ELISPOT plate was subjected to treatment for cell staining in accordance with the manufacturer's protocol. Stained spots were counted on ImmunoSpot Analyzer (C.T.L.).
The scale on the vertical axis of the graph of FIG. 1 indicates the number of cells (CTLs) which produced IFNγ in response to the stimulation with the peptide of SEQ ID NO: 15. The compound and the peptide administered to the mice are described under the bars. […] Therefore, effect of each vaccine in CTL induction is known from the difference in cell count between the black bar and the white bar. When no IFNγ is produced by cells in the absence of the stimulation with SEQ ID NO: 15, a white bar cannot have a height.
The solution was diluted with water for injection to a concentration of 10 mg/ml, and then converted to an emulsion by addition of an equal volume of Montanide ISA 51 VC.
(§1) The solution was diluted with water for injection to a concentration of 10 mg/ml, and then converted to an emulsion by addition of an equal volume of Montanide ISA 51 VG.
as §1, §1, §1, §1, §1, §1, §1, §1, §1

Q: For AYPGCNKRYFKLSHL [SEQ ID NO: 2], which “Effect of the cocktail vaccine comprising the peptide on the CTL induction by the compound of formula (4)” value (from here on “Effect”) is on record?
A: The value was “enhanced”.

Q: What about the “CTL induction by the cocktail vaccine comprising the peptide in addition to the compound of formula (4) (increase in number of CTLs)” value (“CTL induction … (increase in number of CTLs)” for short) of the same sequence?
A: The value was “highly effective in CTL induction”.

Q: How did the “Effect” value turn out when AYPGCNKRYFKLSHLQMH [SEQ ID NO: 43] was run?
A: Its value is “enhanced”.

Q: And the “CTL induction … (increase in number of CTLs)” value?
A: Its value is “highly effective in CTL induction”.

Q: For AYPGCNKRYFKLSHLQMHSRK [SEQ ID NO: 44], which “Effect” value is on record?
A: The value was “enhanced”.

Q: What about the “CTL induction … (increase in number of CTLs)” value of the same sequence?
A: Its value is “highly effective in CTL induction”.

Q: Which “Effect” value does the source give for “CNKRYFKLSHLQMHSRK [SEQ ID NO: 7, reference compound]” here?
A: The value was “enhanced”.

Q: What about the “CTL induction … (increase in number of CTLs)” value of the same sequence?
A: The value was “highly effective in CTL induction”.

Q: With FKLSHLQMHSRKHTG [SEQ ID NO: 13] as the sequence, how does the “Effect” value read?
A: Its value is “enhanced”.

Q: What about the “CTL induction … (increase in number of CTLs)” value of the same sequence?
A: The value was “highly effective in CTL induction”.

Q: What does the source list for GCNKRYFKLSHL [SEQ ID NO: 46]?
A: Effect of the cocktail vaccine comprising the peptide on the CTL induction by the compound of formula (4): enhanced; CTL induction by the cocktail vaccine comprising the peptide in addition to the compound of formula (4) (increase in number of CTLs): highly effective in CTL induction

Q: Which results are given for GCNKRYFKLSHLQMHSRK [SEQ ID NO: 6]?
A: Effect of the cocktail vaccine comprising the peptide on the CTL induction by the compound of formula (4): enhanced; CTL induction by the cocktail vaccine comprising the peptide in addition to the compound of formula (4) (increase in number of CTLs): highly effective in CTL induction

Q: For KLSHLQMHSRKHTGE [SEQ ID NO: 14], which “Effect” value is on record?
A: The value was “enhanced”.

Q: What about the “CTL induction … (increase in number of CTLs)” value of the same sequence?
A: Its value is “highly effective in CTL induction”.

Q: Which results are given for KRYFKLSHLQMHSRK [SEQ ID NO: 9]?
A: Effect of the cocktail vaccine comprising the peptide on the CTL induction by the compound of formula (4): enhanced; CTL induction by the cocktail vaccine comprising the peptide in addition to the compound of formula (4) (increase in number of CTLs): highly effective in CTL induction

Q: Which results are given for “KRYFKLSHLQMHSRKH [SEQ ID NO: 10, reference compound]”?
A: Effect of the cocktail vaccine comprising the peptide on the CTL induction by the compound of formula (4): enhanced; CTL induction by the cocktail vaccine comprising the peptide in addition to the compound of formula (4) (increase in number of CTLs): highly effective in CTL induction

Q: Which “Effect” value does the source give for NKRYFKLSHLQMHSRK [SEQ ID NO: 8] here?
A: The value was “enhanced”.

Q: What about the “CTL induction … (increase in number of CTLs)” value of the same sequence?
A: Its value is “highly effective in CTL induction”.

Q: Which results are given for PGCNKRYFKLSHLQMHSRK [SEQ ID NO: 5]?
A: Effect of the cocktail vaccine comprising the peptide on the CTL induction by the compound of formula (4): enhanced; CTL induction by the cocktail vaccine comprising the peptide in addition to the compound of formula (4) (increase in number of CTLs): highly effective in CTL induction

Q: With “PGCNKRYFKLSHLQMHSRKHTG [SEQ ID NO: 4, reference compound]” as the sequence, how does the “Effect” value read?
A: Its value is “enhanced”.

Q: And the “CTL induction … (increase in number of CTLs)” value?
A: Its value is “highly effective in CTL induction”.

Q: For RYFKLSHLQMH [SEQ ID NO: 45], which “Effect” value is on record?
A: Its value is “enhanced”.

Q: What about the “CTL induction … (increase in number of CTLs)” value of the same sequence?
A: Its value is “highly effective in CTL induction”.

Q: Which results are given for RYFKLSHLQMHSRK [SEQ ID NO: 39]?
A: Effect of the cocktail vaccine comprising the peptide on the CTL induction by the compound of formula (4): enhanced; CTL induction by the cocktail vaccine comprising the peptide in addition to the compound of formula (4) (increase in number of CTLs): highly effective in CTL induction

Q: RYFKLSHLQMHSRKH [SEQ ID NO: 11] was tested. Which “Effect” value did it give?
A: The value was “enhanced”.

Q: What about the “CTL induction … (increase in number of CTLs)” value of the same sequence?
A: The value was “highly effective in CTL induction”.

Q: For RYFKLSHLQMHSRKHT [SEQ ID NO: 48], which “Effect” value is on record?
A: Its value is “enhanced”.

Q: And the “CTL induction … (increase in number of CTLs)” value?
A: The value was “highly effective in CTL induction”.

Q: Which results are given for RYFKLSHLQMHSRKHTGE [SEQ ID NO: 49]?
A: Effect of the cocktail vaccine comprising the peptide on the CTL induction by the compound of formula (4): enhanced; CTL induction by the cocktail vaccine comprising the peptide in addition to the compound of formula (4) (increase in number of CTLs): highly effective in CTL induction

Q: How did the “Effect” value turn out when YFKLSHLQMHSRKHT [SEQ ID NO: 12] was run?
A: The value was “enhanced”.

Q: And the “CTL induction … (increase in number of CTLs)” value?
A: The value was “highly effective in CTL induction”.

Q: How did the “Effect” value turn out when YPGCNKRYFKLSHLQ [SEQ ID NO: 3] was run?
A: Its value is “enhanced”.

Q: What about the “CTL induction … (increase in number of CTLs)” value of the same sequence?
A: Its value is “highly effective in CTL induction”.
